Test results reported in patent US20100009405A1, “Biosynthetic process for the preparation of gallidermin” (priority 2005, published 2010).
Converted amounts (≈) assume the structure as drawn. Ends that are not written are not given here.

Columns and labels:
[1] = test system: S. gallinarum (pGV5); test: Minimum inhibitory concentration of kanamycin used for selection; type: cell-based, Staphylococcus gallinarum; conditions: B-medium
Protocol: FIG. 4 is a schematic representation of the strategy employed for the selection of gdmP knock-out strains. Cm: chloramphenicol; Kan: kanamycin; MIC: minimum inhibitory concentration; R: resistance; S: sensitivity;
A first S. gallinarum (pGV5) culture was started inoculating 10 ml kanamycin-supplemented ([…]) B-medium with a single colony of a transformed cell. Culture was incubated shaking with 225 rpm at 30° C., a temperature that allowed pGV5 to replicate as free plasmid (permissive temperature), until late stationary phase (16h). With this culture, new cultures were inoculated (1:100) and incubated shaking with 225 rpm at 30° C. into the late stationary phase (16 h). […] This step was repeated once, before diluting the cultures 1:100 into 100 ml B-medium containing no antibiotic. Growth at 40° C. was extended for another 24 hours.

[2] = test system: sensitive test strain; test: Test-disc bioassay of antibacterial activity of gallidermin preparations; type: cell-based; conditions: dilutions of stock solutions on test discs, same concentrations
Protocol: FIGS. 12A and B show the result of the proteolytic (trypsin) conversion of pregallidermins into gallidermin. […] Dilutions for a stock solution of either compound were applied onto test discs and incubated in the presence of a sensitive test strain. […] Pre-gallidermins (1.09 g/l) were incubated with trypsin (0.2 g/l) 1 h, RT, pH 6.5,
Of all proteases examined, only trypsin appeared to be suitable for a commercial and industrialised process. […] We have disclosed the feasibility to selectively cleave pre-gallidermins into mature gallidermin using serine-type proteases and trypsin in particular. While we have employed soluble enzyme preparations, alternatives, such as immobilized enzyme preparations, could be used instead. This would facilitate the repetitive use of such enzymes and avoid possible contaminations of the final product by trypsin, even though, trypsin is generally regarded as safe (GRAS).

Compound | MIC value [1] | bioactivity compared with gallidermin isolated from the wild-type strain [2]
NC[C@H]1O[C@H](O[C@H]2[C@H](O)[C@@H](O[C@H]3O[C@H](CO)[C@@H](O)[C@H](N)[C@H]3O)[C@H](N)C[C@@H]2N)[C@H](O)[C@@H](O)[C@@H]1O [kanamycin] | 7500 µg/mL (≈ 15.5 mM) | 
gallidermin [in-situ activated gallidermin] (IASKFLCTPGCAKTGSFNSYCC; also: lantibiotic with dehydroamino residues and thioether bridges, places not given here, in-situ activated form; UniProt P21838 31-52, looked up) |  | same bioactivity
